Source: patent publication US20230287336A1, “METHOD FOR IMPROVING FLAVONOID PHENYLPROPANOID COMPOUNDS IN SAUSSUREA INVOLUCRATA CELL CULTURE” (DALIAN PRACTICAL BIOTECHNOLOGY CO, .LTD, priority 2019, published 2023)
Where two headings read alike, the source gives them in different places.

Tests used:
Format in all cases: cell-based
[1] = test system: Saussurea involucrata cell culture; test: Dry cell weight / yield of dried cultures after culturing
Experimental: (1) Measurement of Dry Cell Weight Cell culture solution was poured into a 120-mesh stainless steel mesh and filtered to harvest cells, the cells were washed with distilled water 3 times, moisture on the surface of the cells was fully absorbed with absorbent paper, a fresh weight was measured, […]

[2] = test system: Saussurea involucrata cell culture; test: Content of total flavonoids in cultured cells, measured with a spectrophotometer (rutin standard curve)
Experimental: (2) Method for Determining Total Flavonoids of Saussurea involucrata:
Preparation of control solution: 10 mg of rutin control substance dried to a constant weight at 120° C. was precisely weighed and placed in a 50 mL volumetric flask, an appropriate amount of methanol was added, the mixture was heated in water bath to dissolve the rutin control substance and cooled down, methanol was added to the graduation line, and the mixture was shaken well. Then a control solution was obtained (0.2 mg of anhydrous rutin was contained in 1 mL of control solution);
Preparation of a standard curve: 1 mL, 2 mL, 3 mL, 4 mL, 5 mL and 6 mL of control solutions were precisely weighed and placed in 25 mL volumetric flasks respectively, water was added to 6 mL in each volumetric flask, 1 mL of 5% sodium nitrite solution was added, and the flasks were shaken well and placed for 6 min; 1 mL of 10% aluminum nitrate was added, and the flasks were shaken well and placed for 6 min; 10 mL of sodium hydroxide test solution was added, water was added to the graduation line, and the flasks were shaken well and placed for 15 min; a corresponding reagent was used as a blank, an absorbance was determined at 500 nm, and a standard curve was plotted with the absorbance as a longitudinal coordinate and a concentration as a horizontal coordinate;
Determination: About 0.10 g of coarse powder of this product was taken, precisely weighed and placed in a Soxhlet extractor, about 90 mL of methanol was added, the mixture was heated to reflux until an extracting solution became colorless (the number of reflux times for each sample should not be less than 4 and 2 hours) and transferred into a 50 mL volumetric flask, methanol was added to the graduation line, and the flask was shaken well.

[3] = test system: Saussurea involucrata cell culture; test: Contents of rutin, chlorogenic acid, syringin and 1,5-dicaffeoylquinic acid in cultured cells by HPLC
Experimental: (3) Content Determination of Phenylpropanoids
Cultured Saussurea involucrata cells dried to a constant weight were taken and ground to fine powder; about […] of fine powder was precisely weighed, placed in a test tube with a stopper and extracted ultrasonically with 50 mL of 20% methanol for 1 h; a weight loss was supplemented with methanol, the mixture was centrifuged at 15,000 r/min for 20 min, a supernatant was taken and filtered through a 0.45 μm filter membrane, and the contents of rutin, chlorogenic acid, syringin and 1,5-dicaffeoylquinic acid were determined simultaneously through HPLC. Shiseido capcell pak C18 MGII chromatographic column (4.6 mm×250 mm, 5 μm);
A mobile phase A was 0.2% of […] (containing 50 mmo/L KH2PO4), a mobile phase B was acetonitrile, and gradient elution was performed. Gradient conditions: 0 min (VA:VB=92:8)-20 min (VA:VB=90:10)-50 min (VA:VB=70:30)-60 min (VA:VB=50:50); flow velocity 1.0 mL/min^−1; column temperature 30° C.; detection wavelength 265 nm (syringin); sample size 20 μL.

[4] = cells dried at 50° C. for 24 h, additive and culture conditions as in each example
[5] = harvested suspension culture, medium, additive, time of addition and culturing time as in each example

Row | Molecule | weight of cultures after being dried (yield of dry products) [1, 4] | content of total flavonoids in the cells [2, 5] | content of 1,5-dicaffeoylquinic acid in the cells [3, 5] | content of chlorogenic acid in the cells [3, 5] | content of rutin in the cells [3, 5] | content of syringin in the cells [3, 5] | weight of cultures after being dried (yield of dry products) [1] | content of total flavonoids in the cells [2] | content of 1,5-dicaffeoylquinic acid in the cells [3] | content of chlorogenic acid in the cells [3] | content of rutin in the cells [3] | content of syringin in the cells [3]
1 | O=C(O)C=Cc1ccccc1 [cinnamic acid] | 15 g/L | more than 22 % of the cells (dry weight) | more than 2.81% | more than 1.66% | more than 0.066% | more than 1.45% | – | – | – | – | – | –
2 | CC/C=C\CC1C(=O)CCC1CC(=O)OC (centres unmarked) [methyl jasmonate] | 20.4 g/L | more than 24.1 % of the cells (dry weight) | more than 4.12% | more than 2.44% | more than 0.081% | more than 1.89% | – | – | – | – | – | –
3 | O=C(O)C(=O)O [oxalic acid] | 16 g/L | more than 19.6 % of the cells (dry weight) | more than 1.72% | more than 1.27% | more than 0.071% | more than 0.95% | – | – | – | – | – | –
4 | N[C@@H](Cc1ccccc1)C(=O)O [phenylalanine] | 15 g/L | more than 22.7 % of the cells (dry weight) | more than 2.48% | more than 1.28% | more than 0.078% | more than 2.07% | – | – | – | – | – | –
5 | O=C(O)c1ccccc1O [salicylic acid] | 16.8 g/L | more than 21.2 % of the cells (dry weight) | more than 3.55% | more than 1.86% | more than 0.072% | more than 1.09% | – | – | – | – | – | –
6 | CC(=O)[O-].[Na+] [sodium acetate] | – | – | – | – | – | – | 15 g/L | more than 21.8 % of the cells (dry weight) | more than 2.35% | more than 1.79% | more than 0.064% | more than 1.22%
7 | N[C@@H](Cc1ccc(O)cc1)C(=O)O [tyrosine] | 18.2 g/L | more than 19.4 % of the cells (dry weight) | more than 2.75% | more than 0.62% | more than 0.062% | more than 1.49% | – | – | – | – | – | –
8 | silver nitrate | 16 g/L | – | more than 2.97% | more than 1.47% | more than 0.065% | more than 1.38% | – | – | – | – | – | –
